How the values were obtained:
[1] = Rat Conditioned Avoidance Response (rat CAR); assay type: in vivo; conditions: for ED50: po, rat, p.o., block of conditioned avoidance response in 50% of rats, tested 1, 2 and 4 hours after dosing, column 4
Protocol: Blocking of CAR in rats at nontoxic doses correlates with major tranquilizer activity in man. Rats are trained to jump out of a pit onto a ledge to avoid shock when presented with a conditioned stimulus of light and sound. Three or four doses of durg are given to a group of 4-8 rats. The animals are tested 1, 2 and 4 hours after dosing. A quantal ED50 is calculated as the dose which would block the CAR in 50% of the rats. The results are given in mg/kg., p.o. (Table 1) The ED50 's for the compound of the present invention and for the molindone racemic mixture are given in the following table, along with certain appropriate ratios: […]

[2] = Tetrabenazine Antagonism (Anti-TBZ); assay type: in vivo, mouse (Carworth CF1 S female mice); conditions: for ED50: po, 1 h, mouse, p.o., tetrabenazine 32 mg/kg i.p. 30 min after compound
Protocol: Groups of 10 Carworth CF1 S female mice, 18-21 g each, were fasted 1.5 hours and were incubated with antagonist compounds at oral doses of 0, 5, 25, and 125 mg/kg or 0, 1, 3, 9, 27, and 81 mg/kg in 0.20 ml of 1% Methocel. The mice were challenged 30 minutes later with tetrabenazine (as the methanesulfonate), 32 mg/kg intraperitoneally (dissolved in 0.20 ml 0.05M KCl at pH 2.0). One hour after antagonist (30 minutes after tetrabenzaine), the mice were examined for signs of exploratory activity and ptosis (eyelid closure). Normal exploratory activity (relief from sedation) was recorded when a mouse lifted by the tail from a group of 10 in a testing box and placed on a stainless steel testing box lid (12.5 × 8 inches with 0.33 inch mesh) either turned its head horizontally 30° in both directions or moved to the edge of the screen within 10 seconds after being placed on the screen. Relief from ptosis was recorded when exactly two seconds after placing the mouse facing the observer, lid closure was less than 50% in both eyes.
The ED50 's for the compound of the present invention and for the molindone racemic mixture are given in the following table, along with certain appropriate ratios: […]

Exploratory Loss = assay type: in vivo, mouse; conditions: for ED50: po, mouse, p.o., loss of exploratory activity, column 3, read-out: ED50 mouse EXPL. LOSS
Source text: The mouse is placed on a stainless steel wire mesh screen (8 × 12 inches, 3 mesh per inch, 1/4inch mesh openings) "shoe-box" lid (1inch high) and is observed for normal activities, such as nose movements, head movements with apparent visual examination of the area, and/or walking around on the screen. Normal mice respond within 2 to 3 seconds. Absence of or a marked depression of these activities for 5 seconds constitutes a loss of exploratory activity. The ED50 's for the compound of the present invention and for the molindone racemic mixture are given in the following table, along with certain appropriate ratios: […]

[3] = relief from ptosis, column 1, read-out: ED50 mouse ANTI-TBZ ptosis
[4] = relief from sedation (exploratory activity), column 2, read-out: ED50 mouse ANTI-TBZ expl. loss

SMILES	ED50 [1] [mg/kg]	ED50 [2, 3] [mg/kg]	ED50 [2, 4] [mg/kg]	ED50 (Exploratory Loss) [mg/kg]	tranquilizer activity compared with the racemate ([1]; in words)	antidepressant activity compared with the racemate ([2]; in words)	separation of the antidepressant activity from the sedative activity (Exploratory Loss; as compared with the racemate, from the ratios in the table, in words)	sedative activity compared with the racemate (Exploratory Loss; in words)
CCc1c(C)[nH]c2c1C(=O)C(CN1CCOCC1)CC2 (racemic) [(±)-molindone, 3-ethyl-6,7-dihydro-2-methyl-5(morpholinomethyl)indol-4(5H)-one, reference compound]	28	7.2	9	38	–	–	–	–
CCc1c(C)[nH]c2c1C(=O)C(CN1CCOCC1)CC2 (single isomer, unassigned; (-)) [(-)-molindone]	21	2.7	3.4	25	approximately the same sedative and tranquilizer activity as the racemate	significantly greater antidepressant activity	clear separation of the antidepressant activity from the sedative activity	approximately the same sedative and tranquilizer activity as the racemate

Reference: patent US4065453A, “Levorotatory molindone and the use as an antidepressant” (Endo Laboratories, Inc., priority 1976, dated 1977)
